Experiment: recombinant barcode read abundance after kanamycin selection (control-corrected) (log10(CPM+1)); higher = more efficient recombination; sequences stand for … in AGTGCAGAGAAAATCGGCCAGTTTTCTCTGCCTGCAGTCCGCATGCCGT…AGATTTATGCAGCGGACTGCCTTTCTCCCAAAGTGATAAACCGGACAGTATCATGGACCGGTTTTCCCGGTAATCCGTATTTGCAAGGTTGGTTTCACT; site = the 11-nt target
In short: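 In E. coli, a pooled library matched targets to IS621 bridge RNA target-binding loops and was introduced alongside a donor plasmid. Cells went onto chloramphenicol/ampicillin/kanamycin with 0.1 mM IPTG or onto chloramphenicol/ampicillin LB agar as control, in duplicate. Recombination efficiency, from recombinant-junction barcodes as counts per million, is averaged and control-corrected. It is reported as log10(CPM+1).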
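Note: IS621 recombinase and bridge RNA in Escherichia coli cells.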

Going from “GACTTGCCTTGGGTTCTAACCTGTTGCAT (site GACTTGCCTAT)” to “GACTTGCCTTGGGTTCTAACCTGTTGCAT (site GACTTTCCTAT)”, the “recombinant barcode read abundance (log10)” value rises from 0.313 to 0.813.

Compared with “GAGAAGACTTGGGTTCTAACCTGTTGCGT (site ACTCGTCCTTA)”, “GAGAAGACTTGGGTTCTAACCTGTTGCGT (site GAGAAGACTAC)” is higher in “recombinant barcode read abundance (log10)” value: 0.118 for the first, 2.56 for the second.

Going from “GAGACATCTTGGGTTCTAACCTGTTGCCT (site GAGAAATCTAG)” to “GAGACATCTTGGGTTCTAACCTGTTGCCT (site GAGACATCTAG)”, the “recombinant barcode read abundance (log10)” value rises from 0.11 to 0.732.

Going from “GAGACATCTTGGGTTCTAACCTGTTGCCT (site GAGAGATCTAG)” to “GAGACATCTTGGGTTCTAACCTGTTGCCT (site GAGATATCTAG)”, the “recombinant barcode read abundance (log10)” value falls from 0.463 to 0.206.

Compared with “GAGAGAACTTGGGTTCTAACCTGTTGCCT (site CCATAGGCTCA)”, “GAGAGAACTTGGGTTCTAACCTGTTGCCT (site GAGAGAACTAG)” is higher in “recombinant barcode read abundance (log10)” value: 0.0856 for the first, 1.51 for the second.

Compared with “GAGAGGTCTTGGGTTCTAACCTGTTGCGT (site GAGAGGTCTAA)”, “GAGAGGTCTTGGGTTCTAACCTGTTGCGT (site GAGAGGTCTAC)” is higher in “recombinant barcode read abundance (log10)” value: 0.502 for the first, 2.5 for the second.

First: GAGAGGTCTTGGGTTCTAACCTGTTGCGT (site GAGAGGTCTAG)
Second: GAGAGGTCTTGGGTTCTAACCTGTTGCGT (site GAGAGGTCTAT)
The “recombinant barcode read abundance (log10)” value of the first is lower: 0.613 for the first, 1.53 for the second.

Compared with “GAGAGTCCTTGGGTTCTAACCTGTTGCCA (site ATTGAGACTAA)”, “GAGAGTCCTTGGGTTCTAACCTGTTGCCA (site GAGAGTCCTTG)” is higher in “recombinant barcode read abundance (log10)” value: 0.281 for the first, 1.24 for the second.

First: GAGATTCCTTGGGTTCTAACCTGTTGCCT (site CAGATTCCTAG)
Second: GAGATTCCTTGGGTTCTAACCTGTTGCCT (site GAGATTCCTAG)
The “recombinant barcode read abundance (log10)” value of the first is lower: 0.0463 for the first, 0.399 for the second.

Compared with “GAGCAAACTTGGGTTCTAACCTGTTGCCT (site GAGCAAACTAG)”, “GAGCAAACTTGGGTTCTAACCTGTTGCCT (site GATCAATCTAG)” is lower in “recombinant barcode read abundance (log10)” value: 1.2 for the first, 0.16 for the second.

Going from “GAGCATACTTGGGTTCTAACCTGTTGCCT (site GAGCATACTAG)” to “GAGCATACTTGGGTTCTAACCTGTTGCCT (site GAGGGTACTAG)”, the “recombinant barcode read abundance (log10)” value falls from 1.62 to 0.0325.

Going from “GAGCCACCTTGGGTTCTAACCTGTTGCCT (site AAGCCACCTAG)” to “GAGCCACCTTGGGTTCTAACCTGTTGCCT (site CAGCCACCTAG)”, the “recombinant barcode read abundance (log10)” value falls from 0.868 to 0.236.

First: GAGCCACCTTGGGTTCTAACCTGTTGCCT (site GAGCCACCTAG)
Second: GAGCCACCTTGGGTTCTAACCTGTTGCCT (site TAGCCACCTAG)
The “recombinant barcode read abundance (log10)” value of the first is higher: 1.48 for the first, 0.911 for the second.

First: GAGCCGGCTTGGGTTCTAACCTGTTGCTT (site GAGACGGCTAA)
Second: GAGCCGGCTTGGGTTCTAACCTGTTGCTT (site GAGCCGGCTAA)
The “recombinant barcode read abundance (log10)” value of the first is lower: 0.0584 for the first, 1.32 for the second.

“GAGCCGGCTTGGGTTCTAACCTGTTGCTT (site GAGGCGGCTAA)” and “GAGCCGGCTTGGGTTCTAACCTGTTGCTT (site GAGTCGGCTAA)” are within 0.2 log units of each other in “recombinant barcode read abundance (log10)” value: 0.3 for the first, 0.337 for the second.

Going from “GAGCGAGCTTGGGTTCTAACCTGTTGCGG (site GAGCGAGCTCA)” to “GAGCGAGCTTGGGTTCTAACCTGTTGCGG (site GAGCGAGCTCC)”, the “recombinant barcode read abundance (log10)” value rises from 0.0195 to 1.13.

Going from “GAGCGAGCTTGGGTTCTAACCTGTTGCGG (site GAGCGAGCTCG)” to “GAGCGAGCTTGGGTTCTAACCTGTTGCGG (site GAGCGAGCTCT)”, the “recombinant barcode read abundance (log10)” value rises from 0.196 to 1.07.

First: GAGCGAGCTTGGGTTCTAACCTGTTGCTG (site GAGCGAGCTCA)
Second: GAGCGAGCTTGGGTTCTAACCTGTTGCTG (site GAGCGAGCTCC)
The “recombinant barcode read abundance (log10)” value of the first is higher: 1.5 for the first, 0.41 for the second.

Going from “GAGCGAGCTTGGGTTCTAACCTGTTGCTG (site GAGCGAGCTCG)” to “GAGCGAGCTTGGGTTCTAACCTGTTGCTG (site GAGCGAGCTCT)”, the “recombinant barcode read abundance (log10)” value rises from 0.529 to 1.25.

Going from “GAGCGCTCTTGGGTTCTAACCTGTTGCAG (site GAGCGCTCTCT)” to “GAGCGCTCTTGGGTTCTAACCTGTTGCAG (site GAGTGCTCTCT)”, the “recombinant barcode read abundance (log10)” value falls from 1.42 to 0.0694.

First: GAGCGTCCTTGGGTTCTAACCTGTTGCAG (site GAGCGTCCTCT)
Second: GAGCGTCCTTGGGTTCTAACCTGTTGCAG (site GAGTTTCCTCT)
The “recombinant barcode read abundance (log10)” value of the first is higher: 1.26 for the first, 0.0296 for the second.

Going from “GAGCGTCCTTGGGTTCTAACCTGTTGCCG (site CAGTGTCCTCG)” to “GAGCGTCCTTGGGTTCTAACCTGTTGCCG (site GAGCGTCCTCG)”, the “recombinant barcode read abundance (log10)” value rises from 0.0924 to 0.739.

Compared with “GAGCGTTCTTGGGTTCTAACCTGTTGCCT (site GAGCGCTCTCG)”, “GAGCGTTCTTGGGTTCTAACCTGTTGCCT (site GAGCGTTCTAG)” is higher in “recombinant barcode read abundance (log10)” value: 0.199 for the first, 1.47 for the second.

Going from “GAGCTACCTTGGGTTCTAACCTGTTGCCC (site GAGCTACCTAG)” to “GAGCTACCTTGGGTTCTAACCTGTTGCCC (site GAGCTACCTCG)”, the “recombinant barcode read abundance (log10)” value falls from 1.48 to 0.199.

Compared with “GAGCTACCTTGGGTTCTAACCTGTTGCCC (site GAGCTACCTGG)”, “GAGCTACCTTGGGTTCTAACCTGTTGCCC (site GAGCTACCTTG)” is lower in “recombinant barcode read abundance (log10)” value: 1.72 for the first, 0.85 for the second.

Going from “GAGCTAGCTTGGGTTCTAACCTGTTGCGT (site GAGCTAGCTAC)” to “GAGCTAGCTTGGGTTCTAACCTGTTGCGT (site GAGCTAGCTGC)”, the “recombinant barcode read abundance (log10)” value falls from 2.41 to 0.155.

“GAGGACTCTTGGGTTCTAACCTGTTGCCG (site GAGGACTCTAG)” and “GAGGACTCTTGGGTTCTAACCTGTTGCCG (site GAGGACTCTCG)” are within 0.2 log units of each other in “recombinant barcode read abundance (log10)” value: 2.41 for the first, 2.32 for the second.

“GAGGACTCTTGGGTTCTAACCTGTTGCCG (site GAGGACTCTGG)” and “GAGGACTCTTGGGTTCTAACCTGTTGCCG (site GAGGACTCTTG)” are within 0.2 log units of each other in “recombinant barcode read abundance (log10)” value: 0.458 for the first, 0.476 for the second.

First: GAGGCTACTTGGGTTCTAACCTGTTGCAT (site ACAAGGGCTCA)
Second: GAGGCTACTTGGGTTCTAACCTGTTGCAT (site GAGGCTACTAT)
The “recombinant barcode read abundance (log10)” value of the first is lower: 0.0274 for the first, 1.26 for the second.

“GAGGCTCCTTGGGTTCTAACCTGTTGCCC (site GAGGCTCCTAG)” and “GAGGCTCCTTGGGTTCTAACCTGTTGCCC (site GAGGCTCCTCG)” are within 0.2 log units of each other in “recombinant barcode read abundance (log10)” value: 0.372 for the first, 0.174 for the second.

First: GAGGCTCCTTGGGTTCTAACCTGTTGCCC (site GAGGCTCCTGG)
Second: GAGGCTCCTTGGGTTCTAACCTGTTGCCC (site GAGGCTCCTTG)
The “recombinant barcode read abundance (log10)” value of the first is higher: 1.26 for the first, 0.104 for the second.

Compared with “GAGGGCACTTGGGTTCTAACCTGTTGCCA (site GAGAGCACTTG)”, “GAGGGCACTTGGGTTCTAACCTGTTGCCA (site GAGGGCACTTG)” is higher in “recombinant barcode read abundance (log10)” value: 0.074 for the first, 0.917 for the second.

Going from “GAGGGCCCTTGGGTTCTAACCTGTTGCTG (site GAGGGCCCTCA)” to “GAGGGCCCTTGGGTTCTAACCTGTTGCTG (site GAGGGCCCTCC)”, the “recombinant barcode read abundance (log10)” value falls from 2.8 to 0.808.
